We go through four compounds from PMC10216478, “Development of a Non-Peptide Angiotensin II Type 1 Receptor Ligand by Structural Modification of Olmesartan as a Biased Agonist” (Biomedicines, 2023).

For one assay, the target named is T1, AT1 wild-type receptor (Rattus norvegicus, UniProt P25095).
T1 construct: expressed in transfected cells; host or cells: COS7
T1 sequence (P25095 1-359): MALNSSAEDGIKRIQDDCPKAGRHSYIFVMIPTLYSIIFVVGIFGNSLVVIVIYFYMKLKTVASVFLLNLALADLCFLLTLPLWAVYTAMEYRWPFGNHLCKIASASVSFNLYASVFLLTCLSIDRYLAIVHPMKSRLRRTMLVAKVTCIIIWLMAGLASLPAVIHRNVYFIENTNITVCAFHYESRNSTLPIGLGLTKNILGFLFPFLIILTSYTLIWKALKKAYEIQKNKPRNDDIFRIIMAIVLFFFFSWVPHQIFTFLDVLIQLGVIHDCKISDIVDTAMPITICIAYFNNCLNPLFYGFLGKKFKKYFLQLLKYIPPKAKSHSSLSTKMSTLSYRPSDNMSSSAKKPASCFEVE
The assay can be described thus: Immunoblotting of ERK 1/2 activation in COS7 cells overexpressing AT1 wild-type receptor. It counts as cell-based. The note with it: for ERK1/2 activation: AT1 wild-type receptor, COS7 cells, 1 µM ligands or 0.1 µM Ang II, 10 min, n = 5, vs. (-); for Mode of action in terms of ERK1/2 activation: authors' classification from ERK1/2 activation. The procedure: The synthetic rat AT1 receptor gene, which was cloned in the shuttle expression vector pMT-2, was used for expression and mutagenesis, as described previously. […] In the experiments, cells were grown without a cell-growth supplement. To express the AT1 receptor protein, 10 µg of purified plasmid DNA per 10^7 cells was used in the transfection. Wild-type and mutated AT1 receptors were transiently transfected into cells using Lipofectamine 2000 liposomal reagent (Roche Applied Science, Penzberg, Germany). Cells were plated and grown and were 70–90% confluent at the time of transfection. We incubated plasmid DNA (10 µg)–lipid (10 µL) complexes for 5 min at room temperature and added and incubated the complexes with cells for 24 h. We then analyzed the parameters in transfected cells. […] Transfected cells that had been cultured for 48–72 h were harvested. Cell membranes were prepared using the nitrogen Parr bomb disruption or freeze–thaw methods.
In in vitro studies, ERK 1/2 activation by 1 µM ligands or 0.1 µM Ang II incubated for 10 min was measured using COS7 cells that overexpressed AT1 wild-type and mutant receptors. ERK activity was measured in cells maintained for 18 h in DMEM containing 0.1% serum. At the end of the stimulation, the culture medium was removed by aspiration, the cells were washed with ice-cold phosphate-buffered saline, and the dishes were frozen in liquid nitrogen. The cells were scraped using a scraper after melting, and the scraped cells were transferred to a tube. We homogenized the cells in lysis buffer plus protease inhibitors and determined the protein concentration using the bicinchoninic acid method. […] We fractionated total proteins using sodium dodecyl sulfate polyacrylamide gel electrophoresis; we then transferred the proteins to a Hybond nitrocellulose membrane and blocked the blotted membranes with 10% bovine serum albumin in tris-buffered saline buffer (50 mM Tris–HCl pH 7.6, 150 mM NaCl) for 1 h at room temperature. […] An enhanced chemiluminescent substrate system (Amersham, Buckinghamshire, UK) was used. The signal was independently quantified by digital image analysis (ImageJ, National Institutes of Health, Bethesda, MD, USA).

The target of the next assay is T2, AT1 N295A receptor (Rattus norvegicus, UniProt P25095, N295A).
T2 construct: expressed in transfected cells; host or cells: COS7
T2 sequence (P25095 1-359 N295A): T1 sequence (P25095 1-359) with N295A
The assay is described as follows: Competition binding study, 125I-[Sar1,Ile8]Ang II, AT1 N295A receptor. The note with it: competition with 125I-[Sar1,Ile8]Ang II, n = 3, mean ± standard error, read-out: Binding affinity (Kd). From the text:
We mutated four amino acids in transmembrane (TM) III, VI, and VII in the AT1 receptor (L112A, Q257A, Y292A, and N295A receptors). We determined the mutation sites of the AT1 receptor according to ARB, which produced olmesartan derivatives with different interactions and functions toward the AT1 receptor, as previously reported by Zhang et al., since the additional 4-hydroxybenzyl groups of R781253 and R794847 were predicted to extend to a sub-pocket on the bottom of the AT1 receptor ligand-binding pocket consisting of Leu^112 and Gln^257. In addition, since the biased ligand TRV027 induced changes near the NPxxY motif in TM domain 7 that are related to receptor activation, Tyr^292 and Asn^295 in the AT1 receptor were mutated.
The synthetic rat AT1 receptor gene, which was cloned in the shuttle expression vector pMT-2, was used for expression and mutagenesis, as described previously. COS7 cells (No. CRL-1651, ATCC, Manassas, VA, USA) were cultured in 10% fetal bovine serum (FBS) and penicillin- and streptomycin-supplemented Dulbecco’s modified Eagle’s essential medium (PS-DMEM) in 5% CO2 at 37 °C. In the experiments, cells were grown without a cell-growth supplement. To express the AT1 receptor protein, 10 µg of purified plasmid DNA per 10^7 cells was used in the transfection. Wild-type and mutated AT1 receptors were transiently transfected into cells using Lipofectamine 2000 liposomal reagent (Roche Applied Science, Penzberg, Germany). Cells were plated and grown and were 70–90% confluent at the time of transfection. We incubated plasmid DNA (10 µg)–lipid (10 µL) complexes for 5 min at room temperature and added and incubated the complexes with cells for 24 h. We then analyzed the parameters in transfected cells. Cell viability was >95% according to trypan blue exclusion analysis in the control experiments. Transfected cells that had been cultured for 48–72 h were harvested. Cell membranes were prepared using the nitrogen Parr bomb disruption or freeze–thaw methods.
The Kd (nM) values of receptor binding were determined with ^125I-[Sar^1, Ile^8]AngII-binding experiments under equilibrium conditions. Binding kinetics were determined following the methods described in the literature. We carried out binding by using ^125I-[Sar^1, Ile^8] AngII (2200 Ci/mmol) and an increasing concentration (10^−11–10^−5 M) of each unlabeled compound. Nonspecific binding of ^125I-[Sar^1, Ile^8] Ang II was determined in the presence of a high concentration (10^−6 M) of unlabeled [Sar^1, Ile^8]. Next, the incubation mixture was separated by vacuum filtration through Whatman GF/C glass filters (Disposable Filter Funnels Grade GF/C, GE Healthcare), and presoaked with 0.1% polyethylenimine. The filter was washed with 3 mL of ice-cold stop buffer (25 mM Tris–HCl, pH 7.4, 1 mM MgCl2). The radioactivity trapped on the filters was quantified using an automatic γ-counter. The percentage (%) of specific binding of ^125I-[Sar^1, Ile^8]Ang II was calculated using the following formula: 100 × (% total binding of ^125I-[Sar^1, Ile^8]Ang II—nonspecific binding of ^125I-[Sar^1, Ile^8]Ang II)/(% total binding of ^125I-[Sar^1, Ile^8]Ang II).

Residue numbers refer to the chain shown, from its start.

The Kd is a measure of binding affinity in units of concentration. As for `CCCc1nc(C(C)(C)O)c(C(=O)O)n1Cc1ccc(-c2cc(Cc3ccc(O)cc3)ccc2-c2nnn[nH]2)cc1` [R781253], on AT1 wild-type receptor, the ERK1/2 activation result was “activated ERK1/2” and the “Mode of action in terms of ERK1/2 activation” value is reported as “agonists in terms of ERK1/2 activation”. The dissociation constant (Kd) at AT1 N295A receptor is over 10000 nM.
In the case of `CCCc1nc(C(C)(C)O)c(C(N)=O)n1Cc1ccc(-c2cc(Cc3ccc(O)cc3)ccc2-c2nnn[nH]2)cc1` [R794847], at AT1 wild-type receptor, the ERK1/2 activation result is “activated ERK1/2” and the “Mode of action in terms of ERK1/2 activation” value is recorded as “agonists in terms of ERK1/2 activation”. The dissociation constant Kd at AT1 N295A receptor is over 10000 nM.
In the case of `CCCc1nc(C(C)(C)O)c(C(=O)O)n1Cc1ccc(-c2ccccc2-c2nnn[nH]2)cc1` [Olmesartan, olmesartan], the ERK1/2 activation entry on AT1 wild-type receptor is given as “did not change ERK1/2 activation”. The equilibrium dissociation constant (Kd) at AT1 N295A receptor worked out at 334 ± 105 nM.
As to `CCCc1nc(C(C)(C)O)c(C(N)=O)n1Cc1ccc(-c2ccccc2-c2nnn[nH]2)cc1` [R239470], the ERK1/2 activation result on AT1 wild-type receptor is given as “but not R239470, activated ERK1/2”. Further, the Kd on AT1 N295A receptor was determined as 69 ± 8 nM.
